Measured values from ChEMBL document CHEMBL1759988, “Isatin-β-thiosemicarbazones as potent herpes simplex virus inhibitors” (Bioorg Med Chem Lett, 2011).

Key:
[1] = Cytotoxicity against human RD cells; format: cell-based
Human alphaherpesvirus 1 = assay: Antiviral activity against HSV1 by plaque reduction assay; format: functional, organism-based
Human alphaherpesvirus 2 = assay: Antiviral activity against HSV2 by plaque reduction assay; format: functional, organism-based

| IC50 (Human alphaherpesvirus 1) [µM] | IC50 (Human alphaherpesvirus 2) [µM] | SMILES | CC50 [1] [µM] |
| --- | --- | --- | --- |
| 2.97 | > 25 | O=C1Nc2ccccc2/C1=N/NC(=S)Nc1ccccc1 | > 25 |
| > 25 | > 25 | Cc1ccccc1NC(=S)N/N=C1\C(=O)Nc2ccccc21 | > 25 |
| 3.84 | > 25 | Cc1cccc(NC(=S)NNC2=c3ccccc3=NC2=O)c1 | > 25 |
| > 25 | > 25 | Cc1ccc(NC(=S)N/N=C2\C(=O)Nc3ccccc32)cc1 | > 25 |
| > 25 | > 25 | COc1ccccc1NC(=S)N/N=C1\C(=O)Nc2ccccc21 | > 25 |
| 2.64 | > 25 | COc1cccc(NC(=S)N/N=C2\C(=O)Nc3ccccc32)c1 | > 25 |
| > 25 | > 25 | O=C1Nc2ccccc2/C1=N/NC(=S)Nc1ccc(F)cc1 | > 25 |
| > 25 | > 25 | O=C1Nc2ccccc2/C1=N/NC(=S)Nc1ccccc1Cl | > 25 |
| > 25 | > 25 | O=C1Nc2ccccc2/C1=N/NC(=S)Nc1cccc(Cl)c1 | > 25 |
| 2.69 | > 25 | O=C1Nc2ccccc2/C1=N/NC(=S)Nc1ccc(Cl)cc1 | > 25 |
| 3.29 | > 25 | O=C1Nc2ccccc2/C1=N/NC(=S)Nc1ccc(Br)cc1 | > 25 |
| 6.21 | > 25 | O=C1Nc2ccccc2/C1=N/NC(=S)Nc1ccc(-n2cccn2)cc1 | > 25 |
| > 25 | > 25 | O=C1Nc2ccccc2/C1=N/NC(=S)Nc1ccc(N2CCOCC2)cc1 | > 25 |
| > 25 | > 25 | O=C(N/N=C1\C(=O)Nc2ccccc21)Nc1ccccc1 | > 25 |
| > 25 | > 25 | Cc1cccc(NC(=O)N/N=C2\C(=O)Nc3ccccc32)c1 | > 25 |
| > 25 | > 25 | Cc1ccc(NC(=O)N/N=C2\C(=O)Nc3ccccc32)cc1 | > 25 |
| > 25 | > 25 | COc1cccc(NC(=O)N/N=C2\C(=O)Nc3ccccc32)c1 | > 25 |
| > 25 | > 25 | O=C1Nc2ccc(Cl)cc2/C1=N/NC(=S)Nc1ccccc1 | > 25 |
| > 25 | > 25 | O=C1Nc2ccc(Br)cc2/C1=N/NC(=S)Nc1ccccc1 | > 25 |

| IC50 (Human alphaherpesvirus 1) [µM] | IC50 (Human alphaherpesvirus 2) [µM] | SMILES | CC50 [1] [µM] |
| --- | --- | --- | --- |
| 5.01 | > 25 | COc1ccc2c(c1)/C(=N/NC(=S)Nc1ccccc1)C(=O)N2 | > 25 |
| > 25 | > 25 | CN1C(=O)/C(=N\NC(=S)Nc2ccccc2)c2ccccc21 | > 25 |
| > 25 | > 25 | CCN1C(=O)/C(=N\NC(=S)Nc2ccccc2)c2ccccc21 | > 25 |
| > 25 | > 25 | O=C1/C(=N\NC(=S)Nc2ccccc2)c2ccccc2N1c1ccccc1 | > 25 |
| > 25 | > 25 | O=C1/C(=N\NC(=S)Nc2ccccc2)c2ccccc2N1Cc1ccccc1 | > 25 |
| > 25 | 1.54 | CCN(CC)C(=S)N/N=C1\C(=O)Nc2ccccc21 | > 25 |
| > 25 | 5.8 | O=C1Nc2ccccc2/C1=N/NC(=S)N1CCCC1 | > 25 |
| > 25 | 3.14 | O=C1Nc2ccccc2/C1=N/NC(=S)N1CCCCC1 | > 25 |
| > 25 | > 25 | CNC(=S)N/N=C1\C(=O)Nc2ccccc21 | > 25 |
| > 25 | > 25 | CCNC(=S)N/N=C1\C(=O)Nc2ccccc21 | > 25 |
| > 25 | > 25 | CCCNC(=S)N/N=C1\C(=O)Nc2ccccc21 | > 25 |
| > 25 | > 25 | O=C1Nc2ccc(F)cc2/C1=N/NC(=S)Nc1ccccc1 | > 25 |
| 5.9 | > 25 | O=C1Nc2ccc(OC(F)(F)F)cc2/C1=N/NC(=S)Nc1ccccc1 | > 25 |
| 2.2 | > 25 | COc1ccc(NC(=S)NNC2=c3ccccc3=NC2=O)cc1 | > 25 |
| > 25 | > 25 | Cc1ccc2c(c1)/C(=N/NC(=S)Nc1ccccc1)C(=O)N2 | > 25 |
| 1.3 | 2.74 | O=C1Nc2ccccc2/C1=N/NC(=S)N1CCOCC1 | > 25 |
| > 25 | > 25 | CN(C)C(=S)N/N=C1/C(=O)Nc2ccccc21 | > 25 |
| > 25 | > 25 | CCCN(CCC)C(=S)N/N=C1/C(=O)Nc2ccccc21 | > 25 |
| 0.3 | 1.27 | Nc1nc2c(ncn2COCCO)c(=O)[nH]1 [ACYCLOVIR] | > 25 |
